Here are results for two molecules from paper PMC4026310 (Drug Design, Development and Therapy, 2014).

Molecules are shown by their SMILES.

One data set has as its system liver. The data set can be described thus: In situ liver perfusion. The class given is in vivo, Sprague Dawley rats. The following applies: rat in situ liver perfusion, within 120 minutes.
In another data set the test system is P-gp. The following applies: patients receiving quinidine (P-gp inhibitor) treatment; cited from earlier work.

For the molecule `CO[C@H]1/C=C/O[C@@]2(C)Oc3c(C)c(O)c4c(O)c(c(/C=N/N5CCN(C)CC5)c(O)c4c3C2=O)NC(=O)/C(C)=C\C=C\[C@H](C)[C@H](O)[C@@H](C)[C@@H](O)[C@@H](C)[C@H](OC(C)=O)[C@@H]1C` [rifampicin], the “Effect of inhibitor on the elimination rate of periplocin in the perfusate” value in the data set on liver is reported as “significantly reduced”.

On to `C=C[C@H]1C[N@@]2CC[C@H]1C[C@@H]2[C@@H](O)c1ccnc2ccc(OC)cc12` [quinidine], for which the “Patients showing an obvious increase in the blood concentration of digoxin” value in the data set on P-gp is 90%.
